Paper PMC8087159 (Bioconjugate chemistry, 2021)
“Also recorded” adds a separate entry of the source. Where two headings read alike, the source gives them in different places.

Columns and labels:
RPE65 [1] = molecular target: RPE65 (Bos taurus, UniProt Q28175); experiment: RPE microsome retinoid isomerase assay; format: biochemical, Bovine; conditions: RPE microsomes, 0.5–10 μM compound, 10 μM all-trans-retinol, 1 h
[2] = 3.5 μmol per mouse oral gavage; for original drug in the eye / liver accumulation of N-retinylamides: 2 and 16 h; for N-retinylamides in the eye: 16 h
ARPE19 cells = experiment: ARPE19 cell uptake; format: in vitro ADME, human; conditions: 10 μM, 16 h; compared with Ret-NH2
Caco-2 cell monolayer = Caco-2 cell monolayer transport; format: in vitro ADME, human; conditions: 500 μM in PBS pH 6 on apical side, 37 °C, within 24 h; compared with Ret-NH2
[3] = system: retinal function of C57BL/6J WT mice; experiment: ERG scotopic a-waves in wild-type mice after drug treatment; format: in vivo; conditions: 1.75 μmol per mouse gastric gavage 16 h prior to ERG
RPE65 [4] = molecular target: T1, RPE65 (Homo sapiens, UniProt Q16518); format: cell-based; conditions: NIH3T3 cells, 4.5 μM drug, 10 μM all-trans-retinol, 16 h
T1 sequence (Q16518 1-533): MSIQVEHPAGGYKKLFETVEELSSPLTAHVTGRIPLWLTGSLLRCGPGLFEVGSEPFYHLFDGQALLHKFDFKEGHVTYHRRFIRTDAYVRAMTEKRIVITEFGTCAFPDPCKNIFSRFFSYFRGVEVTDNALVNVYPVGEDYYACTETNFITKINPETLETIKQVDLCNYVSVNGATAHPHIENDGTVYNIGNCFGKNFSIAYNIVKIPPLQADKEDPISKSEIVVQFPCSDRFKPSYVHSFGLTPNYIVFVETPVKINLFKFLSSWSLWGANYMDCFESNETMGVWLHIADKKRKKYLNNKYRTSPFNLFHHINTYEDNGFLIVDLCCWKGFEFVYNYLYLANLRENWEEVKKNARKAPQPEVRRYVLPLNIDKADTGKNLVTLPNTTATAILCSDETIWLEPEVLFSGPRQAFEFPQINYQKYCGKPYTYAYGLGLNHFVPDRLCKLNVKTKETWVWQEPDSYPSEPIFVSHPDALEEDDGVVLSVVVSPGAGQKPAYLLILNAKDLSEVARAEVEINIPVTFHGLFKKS

RPE65 [5] = molecular target: T2, RPE65 (Mus musculus, UniProt Q91ZQ5); experiment: In vivo RPE65 inhibition; conditions: 1.75 μmol/mouse oral gavage 16 h before bleach 10 min at 7000 lx; 24 h in the dark
T2 sequence (Q91ZQ5 2-533): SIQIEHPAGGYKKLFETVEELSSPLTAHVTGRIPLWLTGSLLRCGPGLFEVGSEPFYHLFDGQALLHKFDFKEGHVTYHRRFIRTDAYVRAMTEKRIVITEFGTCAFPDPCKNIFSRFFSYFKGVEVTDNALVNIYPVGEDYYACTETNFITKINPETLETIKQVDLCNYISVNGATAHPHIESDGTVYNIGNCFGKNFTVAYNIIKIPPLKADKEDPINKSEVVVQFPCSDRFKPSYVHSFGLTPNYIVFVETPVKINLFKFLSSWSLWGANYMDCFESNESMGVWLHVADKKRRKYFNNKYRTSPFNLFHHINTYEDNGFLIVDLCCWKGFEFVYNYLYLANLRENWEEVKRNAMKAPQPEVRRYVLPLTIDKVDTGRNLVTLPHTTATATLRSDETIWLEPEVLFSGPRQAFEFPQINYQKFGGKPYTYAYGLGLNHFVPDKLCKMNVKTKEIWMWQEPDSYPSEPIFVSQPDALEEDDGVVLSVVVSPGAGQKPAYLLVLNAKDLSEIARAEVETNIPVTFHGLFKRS

Storage stability = format: physicochemical
[6] = system: light-induced retinal degeneration in Abca4^−/−Rdh8^−/− mice; experiment: Retinal histology; format: in vivo; conditions: drug before intense light exposure; 7 days after light exposure
[7] = mouse, in vivo, po
[8] = cited from earlier work
[9] = system: light-induced retinal degeneration in Abca4^−/−Rdh8^−/− mice; experiment: ERG scotopic a-waves after light-induced retinal degeneration; conditions: 1.9 μmol/mouse gastric gavage 16 h prior to light illumination; measured 7 days after drug administration and illumination

Sequence of RPE65 (Bos taurus, UniProt Q28175) (Q28175 whole entry): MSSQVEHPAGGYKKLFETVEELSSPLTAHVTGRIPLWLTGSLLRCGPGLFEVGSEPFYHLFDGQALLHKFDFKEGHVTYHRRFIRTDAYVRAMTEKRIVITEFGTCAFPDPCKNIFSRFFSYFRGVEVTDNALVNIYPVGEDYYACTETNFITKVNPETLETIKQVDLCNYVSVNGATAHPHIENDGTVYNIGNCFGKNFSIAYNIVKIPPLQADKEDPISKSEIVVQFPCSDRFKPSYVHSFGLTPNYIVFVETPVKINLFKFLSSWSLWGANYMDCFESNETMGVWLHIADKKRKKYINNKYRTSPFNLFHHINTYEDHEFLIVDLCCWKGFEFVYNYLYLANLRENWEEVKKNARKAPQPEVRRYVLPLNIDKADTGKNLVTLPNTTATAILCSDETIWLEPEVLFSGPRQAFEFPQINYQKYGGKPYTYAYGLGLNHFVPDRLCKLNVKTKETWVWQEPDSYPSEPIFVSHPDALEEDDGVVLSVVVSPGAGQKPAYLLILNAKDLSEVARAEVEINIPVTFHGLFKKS

CC1=C(/C=C/C(C)=C/C=C/C(C)=C/CNC(=O)[C@@H](N)Cc2ccccc2)C(C)(C)CCC1 [RF]
inhibition of RPE65 activity (11-cis-retinol production) (RPE65 [1]): minor inhibitory effects | original drug in the eye [2]: detected only at 2 h | N-retinylamides in the eye [2]: comparable to that of Ret-NH2 | uptake by ARPE19 cells (ARPE19 cells): higher uptake | transport through the Caco-2 monolayer (Caco-2 cell monolayer): significantly higher transport

CC1=C(/C=C/C(C)=C/C=C/C(C)=C/CNC(=O)CN)C(C)(C)CCC1 [RG]
liver accumulation of N-retinylamides [2]: lower liver accumulations of N-retinylamides than did RF and RL | original drug in the eye [2]: detected in the eyes at 2 and 16 h at relatively high concentrations | N-retinylamides in the eye [2]: comparable to that of Ret-NH2

CC1=C(/C=C/C(C)=C/C=C/C(C)=C/CNC(=O)[C@@H](N)CC(C)C)C(C)(C)CCC1 [RL]
original drug in the eye [2]: detected only at 2 h | N-retinylamides in the eye [2]: comparable to that of Ret-NH2

CC1=C(/C=C/C(C)=C/C=C/C(C)=C/CNC(=O)CNC(=O)[C@@H](N)C(C)C)C(C)(C)CCC1 [RVG, Ret-NH2-L-valylglycine amide]
recovery of retinal function (ERG) [3]: rapid recovery of retinal function | inhibition of RPE65 activity (11-cis-retinol production) (RPE65 [1]): did not affect significant inhibition; also recorded: no inhibitory effect | liver accumulation of N-retinylamides [2]: lower liver accumulations of N-retinylamides than did RF and RL | original drug in the eye [2]: detected only at 16 h | N-retinylamides in the eye [2]: no detectable N-retinylamides | 11-cis-retinol production (RPE65 [4]): easily detected | uptake by ARPE19 cells (ARPE19 cells): higher uptake | transport through the Caco-2 monolayer (Caco-2 cell monolayer): significantly higher transport | regeneration of 11-cis-retinal in the eye (RPE65 [5]): greater regeneration of 11-cis-retinal | degradation on storage (Storage stability; stored in a desiccator under vacuum at room temperature for 2 months): Less than 5% | retinal structure by histology (H&E) [6]: maintained an intact retinal structure

CC1=C(/C=C/C(C)=C/C=C/C(C)=C/CNC(=O)[C@@H](N)C(C)C)C(C)(C)CCC1 [RV]
N-retinylamides in the eye [7]: no detectable N-retinylamides | liver accumulation of N-retinylamides [7]: lower liver accumulations of N-retinylamides than did RF and RL | original drug in the eye [7]: detected in the eyes at 2 and 16 h at relatively high concentrations

CC1=C(/C=C/C(C)=C/C=C/C(C)=C/CN)C(C)(C)CCC1 [Ret-NH2, Retinylamine, reference compound]
inhibition of RPE65 activity (11-cis-retinol production) (RPE65 [1]): concentration-dependent inhibition | original drug in the eye [2]: No Ret-NH2 was detected at 2 and 16 h in the eye | N-retinylamide concentration in liver ([2]; 2 h): much higher liver concentrations | 11-cis-retinol production (RPE65 [4]): virtually ablated 11-cis-retinol production | regeneration of 11-cis-retinal in the eye (RPE65 [5]): much lower concentration of 11-cis-retinal than the untreated controls | decomposed on storage (Storage stability; desiccator under vacuum at room temperature, within 1 week): 95%

Nc1nc2c(ncn2COCCO)c(=O)[nH]1 [acyclovir]
oral bioavailability (Fo) ([8]; in vivo, po): ~ 16%

COc1ccc(OC)c(C(O)CN)c1 (stereo not drawn) [desglymidodrine]
oral bioavailability ([8]; desglymidodrine to midodrine): 50%

Emixustat-L-Val-Gly amide [EVG]
ERG activities (scotopic a-waves) [9]: only slight decrease of ERG activities
